From US20230391772A1, “METHODS AND COMPOSITIONS FOR TARGETED PROTEIN DEGRADATION” (Ranok Therapeutics (Hangzhou) Co. Ltd., priority 2020, published 2023)

Columns and labels:
[1] = tested on: NCI-H358 human non-small cell lung cancer; assay: NCI-H358 CCK-8 proliferation assay; format: cell-based; settings: NCI-H358 cells, 72 hr
How it was run: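 Proliferation of mutant-KRAS(G12C) cells (2 copies in MIA PaCa-2, single copy in NCI-H358/NCI-H23) measured with CCK-8 after treatment across 20 μM–1.02 nM; inhibition expressed relative to vehicle-treated wells after subtracting no-cell background.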

HSP90a protein = biological target: T1, HSP90a protein (Homo sapiens, UniProt P07900); assay: HSP90α-binding fluorescent polarization (FP) assay, FITC-geldanamycin probe; settings: FP competition with FITC-geldanamycin, 5 nM, 120 min at 25° C.
T1 construct: purchased BPS Bioscience 50298
Procedure: HSP90α-Binding Fluorescent Polarization (FP) Assay
Binding of test compounds to HSP90a protein was measured by fluorescent polarization (FP) using the HSP90a (N-terminal) Assay Kit (BPS Bioscience, #50298), following the manufacturer's instructions, except as noted. Fluorescently labeled HSP90-binding compounds, either the provided FITC-geldanamycin (5 nM final concentration) or RNK04010, a triazolone-based HSP90 binding small molecule labeled with BODIPY through a piperizine-phenyl linker (5 nM final concentration) were employed. A 2.5-fold serial dilution of each test compound ranging from 20 μM to 5.2 nM was assayed for binding to HSP90a. After the final step of adding HSP90a protein to each assay well, plates were mixed by brief shaking, incubated at 25° C. for 120 min for FITC-geldanamycin or 300 min for RNK04010, and fluorescence was measured using a PerkinElmer EnVision Plate Reader.

Structure (SMILES)	EC50 [1]	IC50 (HSP90a protein)
C=C(F)C(=O)N1CCN(c2nc(N3CCC(CN4CCC(Cc5ccc(-n6c(O)nnc6-c6cc(C(C)C)c(O)cc6O)cc5)CC4)CC3)nc3c2CCN(c2cccc4cccc(Cl)c24)C3)C[C@@H]1CC#N [Compound 137, (S)-2-(4-(7-(8-chloronaphthalen-1-yl)-2-(4-((4-(4-(3-(2,4-dihydroxy-5-isopropylphenyl)-5-hydroxy-4H-1,2,4-triazol-4-yl)benzyl)piperidin-1-yl)methyl)piperidin-1-yl)-5,6,7,8-tetrahydropyrido[3,4-d]pyrimidin-4-yl)-1-(2-fluoroacryloyl)piperazin-2-yl)acetonitrile, acetic acid]	100 to 1000 nM	100 to 1000 nM
C=C(F)C(=O)N1CCN(c2nc(N3CCC(CN4CCN(Cc5ccc(-n6c(C(=O)NCC(F)(F)F)nnc6-c6cc(CC)c(O)cc6O)cc5)CC4)CC3)nc3c2CCN(c2cccc4cccc(Cl)c24)C3)C[C@@H]1CC#N [Compound 138, (S)-4-(4-((4-((1-(7-(8-chloronaphthalen-1-yl)-4-(3-(cyanomethyl)-4-(2-fluoroacryloyl)piperazin-1-yl)-5,6,7,8-tetrahydropyrido[3,4-d]pyrimidin-2-yl)piperidin-4-yl)methyl)piperazin-1-yl)methyl)phenyl)-5-(5-ethyl-2,4-dihydroxyphenyl)-N-(2,2,2-trifluoroethyl)-4H-1,2,4-triazole-3-carboxamide]	> 1000 nM	> 1000 nM
CCC(=O)N1CCN(c2nc(OC[C@@H]3CCCN3C(=O)C3CCN(Cc4ccc(-n5c(O)nnc5-c5cc(C(C)C)c(O)cc5O)cc4)CC3)nc3c2CCN(c2cccc4cccc(Cl)c24)C3)C[C@@H]1CC#N [Compound 140, 2-((S)-4-(7-(8-chloronaphthalen-1-yl)-2-(((S)-1-(1-(4-(3-(2,4-dihydroxy-5-isopropylphenyl)-5-hydroxy-4H-1,2,4-triazol-4-yl)benzyl)piperidine-4-carbonyl)pyrrolidin-2-yl)methoxy)-5,6,7,8-tetrahydropyrido[3,4-d]pyrimidin-4-yl)-1-propionylpiperazin-2-yl)acetonitrile]	100 to 1000 nM	100 to 1000 nM
CCC(=O)N1CCN(c2nc(OC[C@@H]3CCN(C(=O)C4CCN(Cc5ccc(-n6c(O)nnc6-c6cc(C(C)C)c(O)cc6O)cc5)CC4)C3)nc3c2CCN(c2cccc4cccc(Cl)c24)C3)C[C@@H]1CC#N [Compound 141, 2-((S)-4-(7-(8-chloronaphthalen-1-yl)-2-(((R)-1-(1-(4-(3-(2,4-dihydroxy-5-isopropylphenyl)-5-hydroxy-4H-1,2,4-triazol-4-yl)benzyl)piperidine-4-carbonyl)pyrrolidin-3-yl)methoxy)-5,6,7,8-tetrahydropyrido[3,4-d]pyrimidin-4-yl)-1-propionylpiperazin-2-yl)acetonitrile]	100 to 1000 nM	100 to 1000 nM
C=C(F)C(=O)N1CCN(c2nc(N3CCC(Cc4ccc(-n5c(C(=O)NCC(F)(F)F)nnc5-c5cc(C(C)C)c(O)cc5O)cc4)CC3)nc3c2CCN(c2cccc4cccc(Cl)c24)C3)C[C@@H]1CC#N [Compound 142, (S)-4-(4-((1-(7-(8-chloronaphthalen-1-yl)-4-(3-(cyanomethyl)-4-(2-fluoroacryloyl)piperazin-1-yl)-5,6,7,8-tetrahydropyrido[3,4-d]pyrimidin-2-yl)piperidin-4-yl)methyl)phenyl)-5-(2,4-dihydroxy-5-isopropylphenyl)-N-(2,2,2-trifluoroethyl)-4H-1,2,4-triazole-3-carboxamide]	> 1000 nM	> 1000 nM
C=C(F)C(=O)N1CCN(c2nc(N3CCN(Cc4ccc(-n5c(O)nnc5-c5cc(CC)c(O)cc5O)cc4)CC3)nc3c2CCN(c2cccc4cccc(Cl)c24)C3)C[C@@H]1CC#N [Compound 143, (S)-2-(4-(7-(8-chloronaphthalen-1-yl)-2-(4-(4-(3-(5-ethyl-2,4-dihydroxyphenyl)-5-hydroxy-4H-1,2,4-triazol-4-yl)benzyl)piperazin-1-yl)-5,6,7,8-tetrahydropyrido[3,4-d]pyrimidin-4-yl)-1-(2-fluoroacryloyl)piperazin-2-yl)acetonitrile]	> 1000 nM	> 1000 nM
